According to PMC9116722 (Cancer chemotherapy and pharmacology, 2022):

Tested on: PAR
Assay: PAR levels in PBMC and tumor biopsies
Type: in vivo, human

C[C@]1(c2nc3c(C(N)=O)cccc3[nH]2)CCCN1 [veliparib]
reduction of tumor PAR level (DL8, one evaluable patient): ≥ 99%
PBMC PAR levels after administration (at 2 hours and 24 hours, most samples, particularly higher dose levels): decreased
